Legend:
[1] = test system: M. tuberculosis H37Rv; type: cell-based
[2] = test system: drug susceptible and drug-resistant M. tuberculosis strains; type: cell-based

SMILES: O=C(O)CCCCCC1NC(=O)CS1 (racemic) [(±)-acidomycin, 6-(4-Oxothiazolidin-2-yl)hexanoic acid]
- agar MIC [1]: 12 µM
- fold increase of MIC of resistant mutant over WT H37Rv [1]: approximately 16 fold
- frequency of resistance (FOR) [1]: less than or equal to 1 × 10^−8

SMILES: O=C(O)CCCCCC1NC(=O)CS1 (stereo not drawn) [acidomycin]
- MICs (range over strains) [2]: 0.096 to 6.2 µM
- fold increase in MIC [1]: two- to three-fold
- fold increase of MIC of resistant mutant over WT H37Rv [1]: 16 fold

Source: article PMC6724193 (ACS infectious diseases, 2019)
